Here are results for two compounds from article PMC8222254, “Self-assembly of an anion receptor with metal-dependent kinase inhibition and potent in vitro anti-cancer properties” (Nature Communications, 2021).

Experiment [1] has as its target 140 purified human kinases (Rattus norvegicus, UniProt Q62868). Description: Kinase inhibition screen, cell-free 33P ATP assay at 10 μM. Type of experiment: biochemical. In a few lines:
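Radiometric ^33P ATP cell-free format with purified enzymes; both complexes run at 10 μM in duplicate, results plotted on a kinome map via HGNC symbols.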

Another experiment has as its target T1, AMPK (Homo sapiens, UniProt Q13131).
T1 construct: purchased Promega
Put plainly: ADP-Glo Kinase Assay in presence of varying AMP. Type of experiment: biochemical. How it is done:
ATP competition kinase assays were performed by the MRC Protein Phosphorylation and Ubiquitination Unit International Centre for Kinase Profiling (University of Dundee). Inhibition of recombinant human AMPK (α1β2γ1) by 10μM [L2Cu3]^6+ or [L2Zn3]^6+ was evaluated at five different ATP concentrations (0.5, 2, 20, 200 and 500 µM ATP). Substrate competition assays were performed using the ADP-Glo Kinase Assay (Promega) and recombinant human AMPK (α1β2γ1) (Promega) with concentrations of the provided AMPK substrate (SAMStide substrate, Promega) ranging from 1 to 15 mg/ml. Following pre-incubation of substrate with kinase for 5 min 10 µM [L2Cu3]^6+, [L2Zn3]^6+ or solvent control and 50 µM ATP was added to start the kinase reaction. For determination of the effects of AMP on AMPK inhibition by [L2Zn3]^6+, the ADP-Glo Kinase Assay (Promega) was performed in presence of varying of AMP (0, 80, 160 μM).
A general note: In ADP-Glo the light output rises with the ADP produced.

Experiment [2] is described as follows: 31P NMR study of hydrolysis of phosphate esters and phosphorylated amino acids. On the procedure:
For ^1H NMR studies, reaction of [L2Zn3]^6+ with either Na2O3POPh and Bu4NH2PO4 was carried out in 10% D2O in CD3CN. The NMR solutions were prepared by dissolving the ligand L and Zn(C2H3O2)2 (in a ratio of 1:1.5) in CD3CN (600 µL). The relevant anion (0.5 equivalents w.r.t ligand) was dissolved in D2O (60 µL) and these solutions were then combined. Heating of the sample was carried out @ 80 °C in a water bath for the specified amount of time. For the ^31P NMR studies solutions were prepared by dissolving the ligand L and Zn(C2H3O2)2 (in a ratio of 1:1.5) in d6-DMSO (200 µL). The anion (0.5 equivalents w.r.t ligand) was dissolved in HEPES (600 µL, 60 mmol @ pH 7.4) and these solutions were then combined. Where required heating of the sample was carried out by incubating the sample @ 37 °C and/or a further 2 h @ 80 °C in a water bath.

In another experiment the test system is HCT116. Description: Metabolic flux analysis (Cell Energy Phenotype Assay, OCR/ECAR). Type of experiment: cell-based, human. The arrangement: Mean Baseline EACR / Baseline EACR / Mean Stressed OCR / Stressed OCR / Mean Stressed EACR / Stressed EACR / Mean Baseline OCR / Baseline OCR: unit not given here. Conditions: for Baseline EACR / Baseline OCR / Stressed EACR / Stressed OCR / Mean Baseline EACR / Mean Baseline OCR / Mean Stressed EACR / Mean Stressed OCR: HCT116 cells. How it is done:
ARPE-19 and HCT116 cells were seeded in 8-well XFp plates (Agilent) 48 h prior to metabolic flux analyses using the Agilent XFp extracellular flux analyser. Cell seeding densities were 2500 cells/well for ARPE-19 cells and 7500 cells/well for HCT116 cells in order to achieve equivalent cell confluency (~70% confluency and in log phase growth) at the time of analyses. Cells were treated with 25 μM of [L2Zn3]^6+ or solvent control (0.2% DMSO) for 1 h or 20 h before metabolic flux analyses using the Cell Energy Phenotype Assay (Agilent) in accordance with the manufacturer’s instructions. For determination of maximal respiratory and glycolytic rates (metabolic reserve) following real-time quantification of basal respiratory and glycolytic rates, a ‘metabolic stress mix’ of 1 µM oligomycin and FCCP (0.5 µM for ARPE-19, 0.25 µM for HCT116) was injected into the media.

Setting [3] is: 1h exposure, mean of 3 runs (Fig. 9c).
The mark [4] stands for this setting: 20h exposure, mean of 3 runs (Fig. 9d).

140 purified human kinases, sequence (Q62868 whole entry): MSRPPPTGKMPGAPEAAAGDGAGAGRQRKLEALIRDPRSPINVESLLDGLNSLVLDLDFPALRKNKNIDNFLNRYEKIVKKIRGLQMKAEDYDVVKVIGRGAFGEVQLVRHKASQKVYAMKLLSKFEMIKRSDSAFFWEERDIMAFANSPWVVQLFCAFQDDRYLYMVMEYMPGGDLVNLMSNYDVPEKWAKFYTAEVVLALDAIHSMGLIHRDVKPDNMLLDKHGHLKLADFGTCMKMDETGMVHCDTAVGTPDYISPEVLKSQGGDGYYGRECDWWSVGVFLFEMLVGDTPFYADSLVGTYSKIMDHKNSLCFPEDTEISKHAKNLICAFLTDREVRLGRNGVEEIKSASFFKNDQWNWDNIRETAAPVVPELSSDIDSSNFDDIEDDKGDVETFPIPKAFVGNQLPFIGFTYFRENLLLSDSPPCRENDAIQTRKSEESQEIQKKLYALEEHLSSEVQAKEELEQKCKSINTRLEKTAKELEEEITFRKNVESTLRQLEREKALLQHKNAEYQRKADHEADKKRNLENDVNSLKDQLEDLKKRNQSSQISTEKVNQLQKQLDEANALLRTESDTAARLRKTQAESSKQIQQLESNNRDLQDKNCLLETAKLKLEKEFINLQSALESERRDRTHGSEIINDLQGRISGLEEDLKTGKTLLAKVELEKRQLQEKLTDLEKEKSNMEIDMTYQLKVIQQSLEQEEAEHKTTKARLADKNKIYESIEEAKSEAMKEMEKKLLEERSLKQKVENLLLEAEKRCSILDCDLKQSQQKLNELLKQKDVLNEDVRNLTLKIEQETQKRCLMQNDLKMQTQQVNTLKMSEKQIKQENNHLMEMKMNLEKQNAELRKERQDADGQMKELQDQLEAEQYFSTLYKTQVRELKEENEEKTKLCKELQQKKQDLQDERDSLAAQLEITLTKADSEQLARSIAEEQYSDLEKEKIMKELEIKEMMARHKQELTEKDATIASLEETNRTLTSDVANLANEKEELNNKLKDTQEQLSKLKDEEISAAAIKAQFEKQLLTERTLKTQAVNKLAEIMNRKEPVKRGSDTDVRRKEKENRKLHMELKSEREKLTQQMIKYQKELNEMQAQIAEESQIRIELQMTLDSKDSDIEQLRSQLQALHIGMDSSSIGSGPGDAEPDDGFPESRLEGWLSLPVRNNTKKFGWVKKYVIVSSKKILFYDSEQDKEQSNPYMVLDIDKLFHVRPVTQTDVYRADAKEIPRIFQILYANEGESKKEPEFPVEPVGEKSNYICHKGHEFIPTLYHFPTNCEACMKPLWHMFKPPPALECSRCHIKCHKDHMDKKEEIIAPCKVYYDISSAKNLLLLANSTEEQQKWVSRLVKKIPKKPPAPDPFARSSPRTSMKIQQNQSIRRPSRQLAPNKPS
T1 sequence (Q13131 whole entry): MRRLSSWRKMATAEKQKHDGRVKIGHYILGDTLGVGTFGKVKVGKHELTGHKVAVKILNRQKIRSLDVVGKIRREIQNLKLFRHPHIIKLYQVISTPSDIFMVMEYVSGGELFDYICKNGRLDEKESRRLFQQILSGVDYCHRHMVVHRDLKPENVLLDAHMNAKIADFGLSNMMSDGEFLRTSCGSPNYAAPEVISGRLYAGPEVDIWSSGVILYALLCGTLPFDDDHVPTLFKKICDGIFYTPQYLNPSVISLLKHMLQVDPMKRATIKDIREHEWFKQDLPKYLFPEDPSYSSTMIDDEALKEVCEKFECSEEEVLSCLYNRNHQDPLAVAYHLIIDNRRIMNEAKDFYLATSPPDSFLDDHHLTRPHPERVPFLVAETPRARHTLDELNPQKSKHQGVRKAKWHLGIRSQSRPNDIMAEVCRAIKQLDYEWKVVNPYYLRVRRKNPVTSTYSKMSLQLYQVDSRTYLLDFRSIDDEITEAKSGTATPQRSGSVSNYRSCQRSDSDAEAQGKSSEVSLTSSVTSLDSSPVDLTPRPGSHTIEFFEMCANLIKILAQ
T1 sequence (O43741 whole entry partner): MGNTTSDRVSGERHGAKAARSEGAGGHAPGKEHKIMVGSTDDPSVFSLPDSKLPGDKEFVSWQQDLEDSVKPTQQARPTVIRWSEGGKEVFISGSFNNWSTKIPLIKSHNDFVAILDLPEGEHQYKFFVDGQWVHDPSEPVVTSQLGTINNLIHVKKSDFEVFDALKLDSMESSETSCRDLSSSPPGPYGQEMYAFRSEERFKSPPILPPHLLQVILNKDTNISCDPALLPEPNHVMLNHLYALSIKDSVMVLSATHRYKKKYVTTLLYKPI
T1 sequence (P54619 whole entry partner): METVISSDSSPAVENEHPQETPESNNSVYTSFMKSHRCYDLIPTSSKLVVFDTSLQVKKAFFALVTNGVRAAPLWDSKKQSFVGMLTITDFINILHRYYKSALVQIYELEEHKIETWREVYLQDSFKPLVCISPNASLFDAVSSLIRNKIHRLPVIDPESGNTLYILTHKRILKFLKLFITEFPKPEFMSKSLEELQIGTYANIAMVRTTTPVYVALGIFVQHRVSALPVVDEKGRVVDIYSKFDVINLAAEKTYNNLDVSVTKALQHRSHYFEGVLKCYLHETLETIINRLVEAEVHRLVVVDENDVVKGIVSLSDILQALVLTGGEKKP

Regarding `[Cu+2].[Cu+2].[Cu+2].c1ccc(-c2csc(NCCN(CCNc3nc(-c4ccccn4)cs3)CCNc3nc(-c4ccccn4)cs3)n2)nc1.c1ccc(-c2csc(NCCN(CCNc3nc(-c4ccccn4)cs3)CCNc3nc(-c4ccccn4)cs3)n2)nc1` [[L2Cu3]6+], the “% activity” value is 16.5% in experiment [1] (ROCK 2, Run 1) and 22.5% in experiment [1] (ROCK 2, Run 2).
Take `CC(=O)[O-].CC(=O)[O-].CC(=O)[O-].CC(=O)[O-].CC(=O)[O-].CC(=O)[O-].[Zn+2].[Zn+2].[Zn+2].c1ccc(-c2csc(NCCN(CCNc3nc(-c4ccccn4)cs3)CCNc3nc(-c4ccccn4)cs3)n2)nc1.c1ccc(-c2csc(NCCN(CCNc3nc(-c4ccccn4)cs3)CCNc3nc(-c4ccccn4)cs3)n2)nc1` [[L2Zn3]6+]: the AMPK activity remaining on AMPK (in the absence of AMP) is recorded as ~ 30%. Moreover, on AMPK (in the presence of AMP (80 or 160 microM)), the AMPK activity remaining is on record as 20-30%. Also, in experiment [2] (37 °C), the “dephosphorylation of serine-OPO3 2- (31P NMR)” value is recorded as “completion after 48 h” and the “dephosphorylation of tyrosine-OPO3 2- (31P NMR)” value is given as “completion after 48 h”. For the same compound, the “dephosphorylation of threonine-OPO3 2- (31P NMR)” value in experiment [2] (37 °C, compared with serine and tyrosine phosphate) is reported as “much slower”. Besides, the “hydrolysis of phenyl phosphate dianion (31P NMR)” value in experiment [2] (after 44 h at 37 °C, 25% DMSO / HEPES) is “virtually no signal”. Further, in experiment [2] (following mixing), the “hydrolysis of 4-nitrophenyl phosphate (31P NMR)” value is recorded as “almost immediate hydrolysis”. In the experiment with HCT116 (HCT116, 25 μM, 1 h), the “glycolysis (ECAR)” value is on record as “modest selective decrease”. Also, the “mitochondrial respiration and glycolysis” value in the experiment on HCT116 (HCT116, 25 μM, 20 h) is on record as “substantially impaired”. In the experiment with HCT116 (1h exposure, Run 1 (Fig. 9c)), the “Baseline EACR” value is 36.12, the “Baseline OCR” value worked out at 98.34, the “Stressed EACR” value is 50.32 and the “Stressed OCR” value is 147.22. Besides, in the experiment with HCT116 (1h exposure, Run 2 (Fig. 9c)), the “Baseline EACR” value came out at 27.29, the “Baseline OCR” value is 76.52, the “Stressed EACR” value is listed as 37.11 and the “Stressed OCR” value is listed as 109.94. Also, in the experiment with HCT116 (1h exposure, Run 3 (Fig. 9c)), the “Baseline EACR” value is given as 34.53, the “Baseline OCR” value is 90.56, the “Stressed EACR” value stood at 47.29 and the “Stressed OCR” value is listed as 132.49. In addition, in the experiment on HCT116 (setting [3]), the “Mean Baseline EACR” value turned out to be 32.65, the “Mean Baseline OCR” value was 88.47, the “Mean Stressed EACR” value is listed as 44.91 and the “Mean Stressed OCR” value turned out to be 129.88. In the experiment with HCT116 (20h exposure, Run 1 (Fig. 9d)), the “Baseline EACR” value was 24.12, the “Baseline OCR” value turned out to be 21.60, the “Stressed EACR” value turned out to be 29.60 and the “Stressed OCR” value was found to be 20.79. In addition, in the experiment with HCT116 (20h exposure, Run 2 (Fig. 9d)), the “Baseline EACR” value was found to be 26.59, the “Baseline OCR” value is recorded as 20.38, the “Stressed EACR” value amounted to 33.07 and the “Stressed OCR” value was determined as 21.88. For the same compound, in the experiment with HCT116 (20h exposure, Run 3 (Fig. 9d)), the “Baseline EACR” value was determined as 25.54, the “Baseline OCR” value is recorded as 19.42, the “Stressed EACR” value stood at 31.03 and the “Stressed OCR” value was determined as 19.19. In addition, in the experiment with HCT116 (setting [4]), the “Mean Baseline EACR” value is 25.41, the “Mean Baseline OCR” value worked out at 20.47, the “Mean Stressed EACR” value came to 31.23 and the “Mean Stressed OCR” value is 20.62.
